Measured values from patent publication US6399051B2, “Method and agents for permanently styling hair, with a base consisting of N,N-disubstituted mercaptoacetamides” (priority 1997, dated 2002).

What was measured:
[1] = 20 min at 50° C., relative to glycerol monothioglycolate solution pH 9 = 100%; for Standardized Wave Stability WSN pH = 7: waving solution pH 7, 87 mmol reducing agent/100 g; for Standardized Wave Stability WSN pH = 8: waving solution pH 8, 87 mmol reducing agent/100 g; for Standardized Wave Stability WSN pH = 9: waving solution pH 9, 87 mmol reducing agent/100 g
[2] = pKa determination (H2O)

Compound | Standardized Wave Stability WSN pH = 7 [1] [%] | Standardized Wave Stability WSN pH = 8 [1] [%] | Standardized Wave Stability WSN pH = 9 [1] [%] | pKa [2]
CCCCN(C)C(=O)CS [Mercaptoacetamide 3, N-Butyl-N-methylmercaptoacetamide] | 63 | 67 | 87 | 7.873
CCN(CCO)C(=O)CS [Mercaptoacetamide 4, N-Ethyl-N-2′-hydroxyethylmercaptoacetamide] |  |  |  | 7.604
Thiolactic acid [reference compound] | 57 | 50 | 70 | 
CCN(CC)C(=O)CS [Mercaptoacetamide 2, N,N-Diethylmercaptoacetamide] | 83 | 98 | 106 | 
CN(C)C(=O)CS [Mercaptoacetamide 1, N,N-Dimethylmercaptoacetamide] | 81 | 98 | 98 | 
